Laboratory results taken from US20060148683A1, “Detection and treatment of intravascular lesions” (priority 2001, published 2006).
Positions of bridges follow the written chain, without caps; N, C: chain ends. Non-standard residues stand in square brackets, D forms with d. Residues, ends and D or L forms follow the SMILES beside them. ξ: configuration not given here. *: point of attachment. X1 = CN(C)c1ccc2c(-c3cc(C(=O)*)ccc3C(=O)[O-])c3ccc(=[N+](C)C)cc-3oc2c1; Ile(3ξ) = CCC(C)[C@H](N)C(=O)O; Ahx = NCCCCCC(=O)O

How the values were obtained:
Format in all cases: binding
fibrin = target: T1, fibrin (Homo sapiens, UniProt P02671+P02675+P02679); experiment: Confocal fluorescence imaging of fibrin-optical agent complex on lesion formed by cross-linking fibrinogen with thrombin; conditions: 0.6 μM optical agent, 0.1 mg/mL fibrinogen, confocal fluorescence imaging ex 555 nm, em 575 nm
T1 sequence (P02671 36-629 limits assumed): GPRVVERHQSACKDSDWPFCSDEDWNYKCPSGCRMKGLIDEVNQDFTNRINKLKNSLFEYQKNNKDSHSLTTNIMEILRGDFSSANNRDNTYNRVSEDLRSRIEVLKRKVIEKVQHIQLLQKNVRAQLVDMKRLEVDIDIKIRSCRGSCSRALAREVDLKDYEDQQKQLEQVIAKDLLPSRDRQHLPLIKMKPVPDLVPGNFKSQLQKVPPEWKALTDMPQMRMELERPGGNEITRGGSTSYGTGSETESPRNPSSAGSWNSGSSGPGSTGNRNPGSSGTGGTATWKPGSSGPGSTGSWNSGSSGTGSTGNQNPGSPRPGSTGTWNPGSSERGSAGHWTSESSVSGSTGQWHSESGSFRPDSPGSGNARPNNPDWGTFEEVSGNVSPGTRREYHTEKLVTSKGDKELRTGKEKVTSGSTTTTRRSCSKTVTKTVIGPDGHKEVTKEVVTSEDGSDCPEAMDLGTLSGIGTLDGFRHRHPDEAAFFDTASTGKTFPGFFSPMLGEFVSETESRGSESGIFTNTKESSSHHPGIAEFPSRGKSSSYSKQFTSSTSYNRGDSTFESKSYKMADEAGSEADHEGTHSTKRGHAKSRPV
T1 sequence (P02675 45-491 limits assumed): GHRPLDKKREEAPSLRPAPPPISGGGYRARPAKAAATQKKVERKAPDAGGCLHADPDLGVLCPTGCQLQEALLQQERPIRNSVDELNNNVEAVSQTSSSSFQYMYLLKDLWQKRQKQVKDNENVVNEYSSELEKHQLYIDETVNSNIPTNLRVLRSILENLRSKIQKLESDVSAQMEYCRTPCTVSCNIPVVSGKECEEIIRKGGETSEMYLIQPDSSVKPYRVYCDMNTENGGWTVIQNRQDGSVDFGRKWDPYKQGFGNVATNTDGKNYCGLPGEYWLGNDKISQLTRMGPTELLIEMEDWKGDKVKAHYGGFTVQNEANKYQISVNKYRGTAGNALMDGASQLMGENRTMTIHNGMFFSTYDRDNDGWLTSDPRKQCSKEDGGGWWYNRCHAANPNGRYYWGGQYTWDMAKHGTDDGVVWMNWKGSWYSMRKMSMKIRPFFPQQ
T1 sequence (P02679 27-437 isoform P02679-2 limits assumed): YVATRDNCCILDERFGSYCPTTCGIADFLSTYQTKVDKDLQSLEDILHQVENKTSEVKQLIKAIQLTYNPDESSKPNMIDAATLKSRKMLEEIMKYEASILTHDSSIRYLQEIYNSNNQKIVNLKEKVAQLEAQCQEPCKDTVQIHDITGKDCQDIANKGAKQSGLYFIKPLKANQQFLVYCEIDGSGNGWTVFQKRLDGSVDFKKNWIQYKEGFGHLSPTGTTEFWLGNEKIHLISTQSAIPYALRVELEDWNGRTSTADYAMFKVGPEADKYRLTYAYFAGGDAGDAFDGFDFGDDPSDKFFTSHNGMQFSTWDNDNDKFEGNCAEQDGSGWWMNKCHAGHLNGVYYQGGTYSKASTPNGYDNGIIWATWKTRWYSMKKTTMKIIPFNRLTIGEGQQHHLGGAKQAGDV
Method: (§1) Site 2/fibrin: 0.1 mg/mL of fibrinogen was mixed with 0.6 μM of an optical agent (Structure XI, see FIG. 3) comprising tetramethylrhodamine as the optical dye. The mixture was coated (approximately 4-20 μL) onto a glass slide and cross-linking of fibrinogen was initiated with 1.3 μg/L of thrombin. Clotting occurred in approximately 15 sec. The slide was imaged using confocal fluorescence imaging (ex 555 nm, em 575 nm).
as §1, with “1/fibrin:” for “2/fibrin:”, “X)” for “XI, see FIG. 3)”, “about 15-20 seconds.” for “approximately 15 sec.”

DD(E) fragment of fibrin = target: T2, DD(E) fragment of fibrin (Homo sapiens, UniProt P02671+P02675+P02679, DEL433-453); experiment: Dissociation constant (Kd) of optical agent for DD(E) fragment of fibrin; conditions: 24° C.; read-out: Kd (μM) vs. DD(E) @ 24° C.
T2 construct: complex of the crosslinked D domains of adjacent fibrin monomers with the central E domain of fibrin
From the text: Optical agents of the invention include an OD and a FBM covalently bound to each other, either directly or via a linker (OD-L-FBM). The FBM can be a small molecule or a peptide. As used herein, the term “peptide” refers to a chain of amino acids that is about 2 to about 75 amino acids in length (e.g., 3 to 50 amino acids). Affinity of a peptide for fibrin can be expressed in terms of its dissociation constant (Kd), which is the equilibrium constant for the dissociation reaction of the peptide from the DD(E) fragment of fibrin. The term “DD(E) fragment of fibrin” refers to a fibrin subcomponent generated by proteolytic degradation of fibrin with plasmin or trypsin. The DD(E) fragment is a complex of the crosslinked D domains of adjacent fibrin monomers with the central E domain of fibrin (See, for example, Spraggon et al., Nature 389:455462 (1997)). Since DD(E) is a product resulting from the proteolysis of fibrin, one of skill in the art will understand that there may be some slight heterogeneity in its composition. The DD(E) fragment can be biotinylated and immobilized via avidin to a solid substrate (e.g., a multi-well plate). Peptides can be incubated with the immobilized DD(E) fragment in a suitable buffer and binding detected using known methodology. Methods for determining the dissociation constant of the peptide for DD(E) are set forth in WO 01/09188.
As a result of the FBM having affinity for fibrin, the optical agent also has affinity for fibrin. The term “affinity” refers to the capacity of the optical agent to be taken up by, retained by, or bound to the fibrin in the lesion. The affinity of an optical agent can be expressed in terms of its Kd, which is the equilibrium constant for the dissociation reaction of the optical agent from fibrin, and determined as discussed above for the peptide. The dissociation constant of the optical agent for DD(E) can have a value less than about 10 μM (e.g., 0.1 μM to 10 μM). In one embodiment, the dissociation constant value is less than about 5 μM. In another embodiment, the dissociation constant value is less than about 1 μM. The dissociation constant also may have a value less than about 0.3 μM (e.g., 0.2 μM).
In the methods of the present invention, the optical agent forms a fibrin-optical agent complex at the site of the lesion. The ability of the optical agent to form a fibrin-optical agent complex may be measured by examining the optical agent's dissociation constant (Kd) for a DD(E) fragment of fibrin as discussed above.

[1] = target: T3, fibrin on a lesion (plasma clot) (Homo sapiens, UniProt P02671+P02675+P02679); experiment: Confocal fluorescence imaging of fibrin-optical agent complex on plasma clot formed by clotting human plasma with thrombin; conditions: 0.6 μM optical agent, platelet rich human plasma, confocal fluorescence imaging ex 555 nm, em 575 nm
T3 construct: from tissue; host or cells: platelet rich human plasma
T3 sequence (P02671 36-629 limits assumed): T1 sequence (P02671 36-629 limits assumed)
T3 sequence (P02675 45-491 limits assumed): T1 sequence (P02675 45-491 limits assumed)
T3 sequence (P02679 27-437 isoform P02679-2 limits assumed): T1 sequence (P02679 27-437 isoform P02679-2 limits assumed)
Method: Site 2/plasma clot: human plasma (platelet rich human plasma) was mixed with 0.6 μM of an optical agent (Structure XI, see FIG. 3) comprising tetramethylrhodamine as the optical dye. The mixture was coated onto a glass slide (approximately 4-20 μL) and clotting of plasma was initiated with 1.3 μg/L of thrombin. Clotting occurred within 15 sec. The slide was imaged using confocal fluorescence imaging (ex 555 nm, em 575 nm).

CCC(C)[C@H](NC(=O)[C@H](Cc1c[nH]c2ccccc12)NC(=O)[C@@H]1CSSC[C@H](NC(=O)[C@H](CCC(=O)O)NC(=O)[C@H](Cc2c[nH]c3ccccc23)NC(=O)[C@H](CCC(N)=O)NC(=O)CCCCCNC(=O)c2ccc(C(=O)[O-])c(-c3c4ccc(=[N+](C)C)cc-4oc4cc(N(C)C)ccc34)c2)C(=O)N2CCC[C@H]2C(=O)N[C@@H](Cc2ccc(O)cc2)C(=O)NCC(=O)N[C@@H](CC(C)C)C(=O)N1)C(=O)N[C@@H](CCC(N)=O)C(N)=O (stereo partly drawn) [Structure XI] ({X1-Ahx}-QWECPYGLCW[Ile(3ξ)]Q-NH2; disulfide 4-9)
Detection of fibrin based on signal of fibrin-optical agent complexes (fibrin): Fibrin was detected | Kd (DD(E) fragment of fibrin): 0.09 µM | Detection of fibrin based on signal of fibrin-optical agent complexes [1]: Fibrin was detected
